Measured values from PMC10997663, “Mechano-sensitivity of β2-adrenoceptors enhances constitutive activation of cAMP generation that is inhibited by inverse agonists” (Communications Biology, 2024).
Where two headings read alike, the source gives them in different places.

Legend:
β2-adrenoceptor (β2AR) [1] = target: T1, β2-adrenoceptor (β2AR) (Homo sapiens, UniProt P07550); assay: NanoBRET saturation binding in live HEK293G cells; assay type: cell-based
T1 construct: gene ADRB2; HiBiT-β2AR (N-terminal HiBiT tag), complemented with LgBiT

β2-adrenoceptor (β2AR) [2] = assay: cells; parameters: species or system HEK293G overexpressing TS-SNAP-β2AR; GloSensor cAMP luminescence; inverse agonist inhibition of the peak basal (mechanically stimulated) response; settings: HEK293G, read-out: % of control remaining
Method: (§1) Four inverse agonists were evaluated as inhibitors of the basal GloSensor^TM response in HEK293G cells overexpressing the TS-SNAP-β2AR (Fig. 3). […] Each inverse agonist was added immediately following an initial luminescence read at time zero. The plate therefore entered the PheraStar at time zero, was then removed for the addition of inverse agonist or HBSS and measurements were made again at t = 1 min and every minute thereafter. Values are mean ± SEM of five independent experiments.

β2-adrenoceptor (β2AR) [3] = assay: cells; parameters: species or system HEK293G overexpressing TS-SNAP-β2AR; GloSensor cAMP luminescence; inverse agonist inhibition of the peak basal (mechanically stimulated) response; settings: HEK293G, read-out: % of control remaining; remark: listed apart in the source
Method: as §1

T1 sequence (P07550 whole entry): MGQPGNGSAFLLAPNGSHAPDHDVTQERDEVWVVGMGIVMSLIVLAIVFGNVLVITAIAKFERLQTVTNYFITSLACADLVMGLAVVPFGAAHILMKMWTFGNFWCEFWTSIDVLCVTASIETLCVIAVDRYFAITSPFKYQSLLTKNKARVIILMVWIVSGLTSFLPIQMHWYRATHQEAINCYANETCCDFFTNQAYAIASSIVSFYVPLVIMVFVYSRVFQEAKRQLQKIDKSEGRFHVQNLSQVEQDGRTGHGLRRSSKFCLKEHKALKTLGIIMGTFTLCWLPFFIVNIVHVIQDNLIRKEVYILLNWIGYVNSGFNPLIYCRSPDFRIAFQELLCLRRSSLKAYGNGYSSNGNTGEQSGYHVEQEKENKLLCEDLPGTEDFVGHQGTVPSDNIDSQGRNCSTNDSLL

Kd (β2-adrenoceptor (β2AR) [1]) | Compound | activity at 10 µM (β2-adrenoceptor (β2AR) [2]) | activity at 10 µM (β2-adrenoceptor (β2AR) [3])
32.6 ± 7.42 nM | Cc1ccc(OCC(O)C(C)NCCNC(=O)CCNC(=O)CCNC(=O)CCCCCNC(=O)COc2ccc(C=CC3=[N+]4C(=Cc5ccc(-c6cccs6)n5[B-]4(F)F)C=C3)cc2)c2c1CCC2 (stereo not drawn) [ICI-118551-βAla-βAla-BODIPY-X-630/650] | – | –
– | COc1ccccc1OCCNCC(O)COc1cccc2[nH]c3ccccc3c12 (stereo not drawn) [carvedilol] | 41.1 ± 4.32% | 54 ± 10.6%
